Experiments:
Test in all cases: KINOMEscan (ScanMAX) kinase profiling
Assay type in all cases: binding
panel of 468 kinases [1] = molecular target: T1, panel of 468 kinases (Homo sapiens, UniProt P15735); conditions: PHKG2; 1 μM; read-out: % control
T1 construct: purchased KINOMEscan (ScanMAX) service
T1 sequence (P15735 1-406): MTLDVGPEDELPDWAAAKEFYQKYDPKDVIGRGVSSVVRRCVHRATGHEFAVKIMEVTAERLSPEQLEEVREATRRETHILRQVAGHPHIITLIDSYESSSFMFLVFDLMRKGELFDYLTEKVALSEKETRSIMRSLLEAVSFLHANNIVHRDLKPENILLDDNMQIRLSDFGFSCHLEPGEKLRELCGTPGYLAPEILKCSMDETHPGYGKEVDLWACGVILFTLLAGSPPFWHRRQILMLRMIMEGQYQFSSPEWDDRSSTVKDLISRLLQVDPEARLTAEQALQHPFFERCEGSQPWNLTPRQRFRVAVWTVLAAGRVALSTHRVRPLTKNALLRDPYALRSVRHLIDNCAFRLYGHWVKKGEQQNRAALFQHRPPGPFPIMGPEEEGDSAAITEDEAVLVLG

panel of 468 kinases [2] = molecular target: T2, panel of 468 kinases (Homo sapiens, UniProt Q13163); conditions: MEK5; 1 μM; read-out: % control
T2 construct: purchased KINOMEscan (ScanMAX) service
T2 sequence (Q13163 1-448): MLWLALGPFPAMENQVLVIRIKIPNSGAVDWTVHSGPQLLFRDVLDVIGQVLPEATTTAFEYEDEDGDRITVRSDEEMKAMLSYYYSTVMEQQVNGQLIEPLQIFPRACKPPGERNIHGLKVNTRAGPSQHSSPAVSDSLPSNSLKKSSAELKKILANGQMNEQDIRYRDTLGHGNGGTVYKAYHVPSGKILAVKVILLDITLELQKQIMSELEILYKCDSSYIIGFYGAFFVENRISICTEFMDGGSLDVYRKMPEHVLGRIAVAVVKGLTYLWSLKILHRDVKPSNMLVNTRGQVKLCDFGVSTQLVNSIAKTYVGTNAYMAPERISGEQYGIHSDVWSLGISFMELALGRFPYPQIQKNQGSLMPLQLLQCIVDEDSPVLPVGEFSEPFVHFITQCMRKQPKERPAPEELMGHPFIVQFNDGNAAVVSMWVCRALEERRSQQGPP

panel of 468 kinases [3] = molecular target: T3, panel of 468 kinases (Homo sapiens, UniProt Q7L7X3); conditions: TAOK1; 1 μM; read-out: % control
T3 construct: purchased KINOMEscan (ScanMAX) service
T3 sequence (Q7L7X3 1-1001): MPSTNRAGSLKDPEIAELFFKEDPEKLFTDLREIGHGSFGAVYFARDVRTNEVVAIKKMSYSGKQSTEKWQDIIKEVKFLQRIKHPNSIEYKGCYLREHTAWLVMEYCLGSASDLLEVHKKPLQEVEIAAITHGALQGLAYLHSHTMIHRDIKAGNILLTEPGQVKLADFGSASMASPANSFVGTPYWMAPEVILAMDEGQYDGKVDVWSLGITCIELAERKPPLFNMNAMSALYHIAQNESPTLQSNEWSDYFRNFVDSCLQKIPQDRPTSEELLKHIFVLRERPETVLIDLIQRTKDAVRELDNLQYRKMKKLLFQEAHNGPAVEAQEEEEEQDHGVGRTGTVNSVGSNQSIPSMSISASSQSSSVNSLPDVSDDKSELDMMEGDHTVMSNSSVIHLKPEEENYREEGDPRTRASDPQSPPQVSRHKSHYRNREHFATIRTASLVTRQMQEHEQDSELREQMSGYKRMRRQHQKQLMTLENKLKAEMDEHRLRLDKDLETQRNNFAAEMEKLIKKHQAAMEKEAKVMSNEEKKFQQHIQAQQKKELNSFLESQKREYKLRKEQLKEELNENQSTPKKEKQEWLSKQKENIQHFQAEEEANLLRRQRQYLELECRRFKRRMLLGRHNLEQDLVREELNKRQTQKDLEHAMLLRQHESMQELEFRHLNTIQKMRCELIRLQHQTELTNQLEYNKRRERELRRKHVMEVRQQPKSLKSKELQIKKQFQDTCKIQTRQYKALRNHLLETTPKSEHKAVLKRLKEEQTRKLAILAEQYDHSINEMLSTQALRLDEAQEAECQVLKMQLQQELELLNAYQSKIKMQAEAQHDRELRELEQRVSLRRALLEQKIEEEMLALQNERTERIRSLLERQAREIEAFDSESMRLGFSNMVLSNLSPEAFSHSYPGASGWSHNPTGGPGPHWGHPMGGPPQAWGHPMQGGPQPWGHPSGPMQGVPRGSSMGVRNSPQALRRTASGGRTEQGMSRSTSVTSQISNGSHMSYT

panel of 468 kinases [4] = molecular target: T4, panel of 468 kinases (Homo sapiens, UniProt Q9BRS2); conditions: RIOK1; 1 μM; read-out: % control
T4 construct: purchased KINOMEscan (ScanMAX) service
T4 sequence (Q9BRS2 1-568): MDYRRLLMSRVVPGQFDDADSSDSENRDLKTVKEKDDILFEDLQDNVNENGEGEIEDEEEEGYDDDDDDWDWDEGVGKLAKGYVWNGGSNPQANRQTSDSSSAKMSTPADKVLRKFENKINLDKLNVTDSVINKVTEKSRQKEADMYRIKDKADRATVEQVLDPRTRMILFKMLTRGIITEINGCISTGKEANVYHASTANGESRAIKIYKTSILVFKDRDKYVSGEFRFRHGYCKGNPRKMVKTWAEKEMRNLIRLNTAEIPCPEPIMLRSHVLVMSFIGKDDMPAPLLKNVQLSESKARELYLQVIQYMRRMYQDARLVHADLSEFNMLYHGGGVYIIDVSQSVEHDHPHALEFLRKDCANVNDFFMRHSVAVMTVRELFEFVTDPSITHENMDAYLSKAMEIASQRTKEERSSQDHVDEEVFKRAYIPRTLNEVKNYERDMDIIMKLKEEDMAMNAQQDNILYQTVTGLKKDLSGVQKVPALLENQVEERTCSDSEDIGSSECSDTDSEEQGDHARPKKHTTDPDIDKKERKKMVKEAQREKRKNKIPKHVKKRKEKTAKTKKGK

panel of 468 kinases [5] = molecular target: T5, panel of 468 kinases (Homo sapiens, UniProt Q9BWU1); conditions: CDK11; 1 μM; read-out: % control
T5 construct: purchased KINOMEscan (ScanMAX) service
T5 sequence (Q9BWU1 whole entry): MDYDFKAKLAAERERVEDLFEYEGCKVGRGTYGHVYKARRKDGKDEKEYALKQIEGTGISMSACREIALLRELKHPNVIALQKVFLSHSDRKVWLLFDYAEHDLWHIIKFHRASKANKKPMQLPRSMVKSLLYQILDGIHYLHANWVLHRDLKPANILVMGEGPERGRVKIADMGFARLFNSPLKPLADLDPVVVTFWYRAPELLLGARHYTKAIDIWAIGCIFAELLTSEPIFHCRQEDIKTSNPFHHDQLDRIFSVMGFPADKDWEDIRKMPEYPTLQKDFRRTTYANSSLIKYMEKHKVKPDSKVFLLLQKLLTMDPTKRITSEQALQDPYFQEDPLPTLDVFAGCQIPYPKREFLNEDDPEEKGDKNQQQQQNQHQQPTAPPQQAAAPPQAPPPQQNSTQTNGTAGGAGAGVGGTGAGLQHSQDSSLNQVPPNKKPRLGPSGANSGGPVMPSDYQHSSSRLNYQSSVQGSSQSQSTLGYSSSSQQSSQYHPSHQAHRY

SMILES	remaining binding at 1 µM (panel of 468 kinases [1])	remaining binding at 1 µM (panel of 468 kinases [2])	remaining binding at 1 µM (panel of 468 kinases [3])	remaining binding at 1 µM (panel of 468 kinases [4])	remaining binding at 1 µM (panel of 468 kinases [5])
CNc1nc(Nc2ccc(S(=O)(=O)N3CCC(N4CCOCC4)CC3)cc2OC)nc2[nH]cc(Cl)c12 [Compound 12, 5-chloro-N2-(2-methoxy-4-((4-morpholinopiperidin-1-yl)sulfonyl)phenyl)-N4-methyl-7H-pyrrolo[2,3-d]pyrimidine-2,4-diamine]	11%	86%	81%	100%	100%
CNc1nc(Nc2ccc(C(=O)N3CCC(N4CCOCC4)CC3)c3c2OCO3)nc2[nH]cc(Cl)c12 [Compound 75, (7-((5-chloro-4-(methylamino)-7H-pyrrolo[2,3-d]pyrimidin-2-yl)amino)benzo[d][1,3]dioxol-4-yl)(4-morpholinopiperidin-1-yl)methanone]	5.3%	47%	81%	48%	98%
CNc1nc(Nc2ccc(P3(=O)CCN(C4CCOCC4)CC3)cc2OC)nc2[nH]cc(Cl)c12 [Compound 77, 4-(4-((5-chloro-4-(methylamino)-7H-pyrrolo[2,3-d]pyrimidin-2-yl)amino)-3-methoxyphenyl)-1-(tetrahydro-2H-pyran-4-yl)-1,4-azaphosphinane 4-oxide]	1.9%	61%	82%	98%	100%
